PubChem BioAssay AID248 (DTP/NCI, 2004)
“And” between values parts separate entries of the source, which are not always exact repeats. Identical values can stand only once. Toxic doses and inconclusive results are not listed. Rule as the data show it: active = T/C of 150% or more; inactive = T/C below 125%.

Tested on: L1210 leukemia ip in BDF1 mice, survival T/C
Assay: NCI In Vivo Anticancer Drug Screen. Data for tumor model L1210 Leukemia (intraperitoneal) in B6D2F1 (BDF1) mice
Conditions: endpoint: mean survival time, higher = longer survival
Outline: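 Ratio derived from survival: compound-dosed mice over vehicle-dosed mice, all bearing a transplantable tumor.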

[1] = dose: 100.0 mg/kg/injection, schedule: Q04DX003 (ip), vehicle: saline with Tween-80
[2] = dose: 200.0 mg/kg/injection, schedule: Q04DX003 (ip), vehicle: saline with Tween-80
[3] = dose: 400.0 mg/kg/injection, schedule: Q04DX003 (ip), vehicle: saline with Tween-80
[4] = dose: 100.0 mg/kg/injection, schedule: Q04DX003 (ip), vehicle: Klucel (hydroxypropylcellulose) (HPC)
[5] = dose: 100.0 mg/kg/injection, schedule: Q01DX001 (ip), vehicle: saline
[6] = dose: 100.0 mg/kg/injection, schedule: Q04DX003 (ip), vehicle: saline
[7] = dose: 200.0 mg/kg/injection, schedule: Q01DX001 (ip), vehicle: saline
[8] = dose: 200.0 mg/kg/injection, schedule: Q04DX003 (ip), vehicle: saline
[9] = dose: 400.0 mg/kg/injection, schedule: Q01DX001 (ip), vehicle: saline
[10] = dose: 400.0 mg/kg/injection, schedule: Q04DX003 (ip), vehicle: saline
[11] = dose: 200.0 mg/kg/injection, schedule: Q04DX003 (ip), vehicle: Klucel (hydroxypropylcellulose) (HPC)
[12] = dose: 400.0 mg/kg/injection, schedule: Q04DX003 (ip), vehicle: Klucel (hydroxypropylcellulose) (HPC)

Measured: T/C

COc1ccc(-c2sc(N)c(C#N)c2C)cc1OC
inactive: dose: 100.0 mg/kg/injection, schedule: Q01DX001 (ip), vehicle: saline with Tween-80 98 % of control | [1] 93 % of control and 97 % of control | dose: 200.0 mg/kg/injection, schedule: Q01DX001 (ip), vehicle: saline with Tween-80 93 % of control | [2] 95 % of control and 90 % of control | dose: 400.0 mg/kg/injection, schedule: Q01DX001 (ip), vehicle: saline with Tween-80 96 % of control | [3] 97 % of control and 102 % of control

BrCc1ccc(CBr)c(Br)c1
inactive: dose: 25.0 mg/kg/injection, schedule: Q01DX009 (ip), vehicle: Klucel (hydroxypropylcellulose) (HPC) 108 % of control | dose: 50.0 mg/kg/injection, schedule: Q01DX009 (ip), vehicle: Klucel (hydroxypropylcellulose) (HPC) 98 % of control | dose: 50.0 mg/kg/injection, schedule: Q04DX003 (ip), vehicle: Klucel (hydroxypropylcellulose) (HPC) 104 % of control | [4] 95 % of control

COc1ccc(/C=C2\CN(CCCC(=O)O)C(=O)C2=O)cc1
inactive: [5] 103 % of control | [6] 100 % of control | [7] 98 % of control | [8] 100 % of control | [9] 100 % of control | [10] 100 % of control

COc1ccc(OCC(=O)O)cc1
inactive: [1] 102 % of control | [2] 107 % of control | [3] 107 % of control

CCSc1ncc(F)c(=O)[nH]1
inactive: dose: 50.0 mg/kg/injection, schedule: Q01DX001 (ip), vehicle: saline 113 % of control | [5] 101 % of control | [7] 98 % of control

CC(=O)CC(=O)C(F)(F)F.CC(=O)CC(=O)C(F)(F)F.CC(=O)CC(=O)C(F)(F)F.CC(=O)CC(=O)C(F)(F)F.[Hf]
inactive: dose: 100.0 mg/kg/injection, schedule: Q04DX002 (ip), vehicle: Klucel (hydroxypropylcellulose) (HPC) 104 % of control | dose: 200.0 mg/kg/injection, schedule: Q04DX002 (ip), vehicle: Klucel (hydroxypropylcellulose) (HPC) 93 % of control | dose: 400.0 mg/kg/injection, schedule: Q04DX002 (ip), vehicle: Klucel (hydroxypropylcellulose) (HPC) 96 % of control

CC(C)c1ccc2c(c1)CCC1C2CCCC1(C)NCc1ccccc1 (stereo unspecified)
inactive: dose: 55.0 mg/kg/injection, schedule: Q01DX Z (ip), vehicle: methylcellulose (MC) 87 % of control

CCOC(=O)CC(=O)O
inactive: [5] 91 % of control | [7] 97 % of control | [9] 91 % of control

CCNC(=O)CCC(N)C(=O)O (stereo unspecified)
inactive: dose: 100.0 mg/kg/injection, schedule: Q01DX009 (ip), vehicle: saline 97 % of control | [6] 97 % of control | dose: 200.0 mg/kg/injection, schedule: Q01DX009 (ip), vehicle: saline 97 % of control | [8] 101 % of control | dose: 400.0 mg/kg/injection, schedule: Q01DX009 (ip), vehicle: saline 95 % of control | [10] 101 % of control

C=CCOCC(O)C[As](=O)(O)c1ccc(Cl)cc1 (stereo unspecified)
inactive: dose: 1.56 mg/kg/injection, schedule: Q04DX003 (ip), vehicle: saline with Tween-80 104 % of control | dose: 3.13 mg/kg/injection, schedule: Q04DX003 (ip), vehicle: saline with Tween-80 104 % of control | dose: 6.25 mg/kg/injection, schedule: Q04DX003 (ip), vehicle: saline with Tween-80 112 % of control

CCCCCC[N+]1(C)CC2C3C=CC(C3)C2C1 (stereo unspecified)
inactive: dose: 12.5 mg/kg/injection, schedule: Q04DX003 (ip), vehicle: saline 103 % of control | dose: 25.0 mg/kg/injection, schedule: Q04DX003 (ip), vehicle: saline 97 % of control | dose: 50.0 mg/kg/injection, schedule: Q04DX003 (ip), vehicle: saline 97 % of control | dose: 75.0 mg/kg/injection, schedule: Q04DX003 (ip), vehicle: saline 92 % of control

O=[N+]([O-])c1ccc(/C=C/c2ccc(S(=O)(=O)F)cc2Cl)c(Cl)c1
inactive: dose: 100.0 mg/kg/injection, schedule: Q01DX001 (ip), vehicle: Klucel (hydroxypropylcellulose) (HPC) 97 % of control | dose: 200.0 mg/kg/injection, schedule: Q01DX001 (ip), vehicle: Klucel (hydroxypropylcellulose) (HPC) 87 % of control | dose: 400.0 mg/kg/injection, schedule: Q01DX001 (ip), vehicle: Klucel (hydroxypropylcellulose) (HPC) 93 % of control

COc1cc(Oc2ccc(OC)c(OC)c2)c(C=O)cc1Br
inactive: dose: 100.0 mg/kg/injection, schedule: Q04DX003 (ip), vehicle: acetone 96 % of control | dose: 200.0 mg/kg/injection, schedule: Q04DX003 (ip), vehicle: acetone 97 % of control | dose: 400.0 mg/kg/injection, schedule: Q04DX003 (ip), vehicle: acetone 97 % of control

O=C(Nc1ccc(C(=O)O)c(O)c1)Oc1ccccc1
inactive: [4] 90 % of control | [11] 98 % of control | [12] 107 % of control

O=C(C(=S)N1CCOCC1)c1ccccc1
inactive: [4] 101 % of control | [11] 104 % of control | [12] 101 % of control

COC(=O)c1cc(=O)c2cc(C(C)=O)ccc2[nH]1
inactive: dose: 100.0 mg/kg/injection, schedule: Q01DX001 (ip), vehicle: other 95 % of control | dose: 200.0 mg/kg/injection, schedule: Q01DX001 (ip), vehicle: other 94 % of control and 89 % of control | dose: 400.0 mg/kg/injection, schedule: Q01DX001 (ip), vehicle: other 105 % of control and 90 % of control

C/C(=C\COc1ccccc1)CCC1OC1(C)C (stereo unspecified)
inactive: dose: 100.0 mg/kg/injection, schedule: Q04DX002 (ip), vehicle: saline with Tween-80 100 % of control | dose: 200.0 mg/kg/injection, schedule: Q04DX002 (ip), vehicle: saline with Tween-80 93 % of control | dose: 400.0 mg/kg/injection, schedule: Q04DX002 (ip), vehicle: saline with Tween-80 104 % of control

Cc1cc(N(CCCl)CCCl)ccc1C=Nc1ccccc1-c1ccccc1
inactive: dose: 5.0 mg/kg/injection, schedule: Q01DX Z (ip), vehicle: carboxymethylcellulose (CMC) 110 % of control | dose: 10.0 mg/kg/injection, schedule: Q01DX Z (ip), vehicle: carboxymethylcellulose (CMC) 114 % of control | dose: 40.0 mg/kg/injection, schedule: Q01DX Z (ip), vehicle: carboxymethylcellulose (CMC) 109 % of control | dose: 80.0 mg/kg/injection, schedule: Q01DX Z (ip), vehicle: carboxymethylcellulose (CMC) 117 % of control

CCN(CC)CCCN1C(=O)c2ccccc2S1(=O)=O
inactive: dose: 44.0 mg/kg/injection, schedule: Q01DX Z (ip), vehicle: saline 102 % of control | dose: 66.0 mg/kg/injection, schedule: Q01DX Z (ip), vehicle: saline 102 % of control | dose: 100.0 mg/kg/injection, schedule: Q01DX Z (ip), vehicle: saline 108 % of control

CCCC[N+](CCCC)=c1cc(-c2ccc(Cl)cc2)ss1
inactive: dose: 100.0 mg/kg/injection, schedule: Q04DX003 (ip), vehicle: water 95 % of control | dose: 200.0 mg/kg/injection, schedule: Q04DX003 (ip), vehicle: water 96 % of control

CN1CCN(CCNC(c2ccccc2)C(O)c2ccccc2)CC1 (stereo unspecified)
inactive: [4] 97 % of control

CC1(C)OC(CO)C2OC(C)(C)OC(CO)C2O1 (stereo unspecified)
inactive: dose: 100.0 mg/kg/injection, schedule: Q01DX001 (ip), vehicle: carboxymethylcellulose (CMC) 98 % of control | dose: 200.0 mg/kg/injection, schedule: Q01DX001 (ip), vehicle: carboxymethylcellulose (CMC) 98 % of control | dose: 400.0 mg/kg/injection, schedule: Q01DX001 (ip), vehicle: carboxymethylcellulose (CMC) 95 % of control

CS/C(N)=N\C(=O)N(C)C
inactive: [1] 97 % of control | [2] 98 % of control | [3] 101 % of control
